Series [1] in a line: refractive index (Na D-line) (dimensionless). To be noted: 101.33 kPa, Liquid.
The conditions of series [2]: Liquid; for mass density: 101.33 kPa.

Numbers after ± are expanded uncertainties.

One may read the refractive index as the speed of light in vacuum divided by its phase velocity in the sample. One may read the mass density as the mass of a sample divided by its volume. Usually vapor or sublimation pressure stands for the pressure of vapour in equilibrium with the condensed phase.

Consider `ClC=C(Cl)Cl` [trichloroethene], for which, in series [1] (298.15 K), the refractive index came to 1.4782 ± 0.005. Further, in series [2] (298.15 K), the mass density was determined as 1464 ± 3.3 kg/m3. Besides, the “vapor or sublimation pressure” value in series [2] (358.35 K) was determined as 95.23 ± 5 kPa.
In the case of `ClC(Cl)=C(Cl)Cl` [tetrachloroethene], the refractive index in series [1] (293.15 K) stood at 1.505 ± 0.005. In series [2] (293.15 K), the mass density is on record as 1625 ± 3.7 kg/m3. Moreover, the “vapor or sublimation pressure” value in series [2] (392.05 K) came out at 95.23 ± 5 kPa.
Consider `Cc1ccccc1C` [1,2-dimethylbenzene], for which the mass density in series [2] (293.15 K) came to 880.1 ± 1.9 kg/m3. Further, in series [2] (415.35 K), the “vapor or sublimation pressure” value was found to be 95.23 ± 5 kPa.
In the case of `ClCCCl` [1,2-dichloroethane], the refractive index in series [1] (293.15 K) worked out at 1.4196 ± 0.005. In series [2] (293.15 K), the mass density is 1252.9 ± 2.7 kg/m3. The “vapor or sublimation pressure” value in series [2] (355.05 K) worked out at 95.23 ± 5 kPa.
For the compound `ClC(Cl)C(Cl)Cl` [1,1,2,2-tetrachloroethane], the refractive index in series [1] (293.15 K) was 1.494 ± 0.005. Moreover, the mass density in series [2] (293.15 K) amounted to 1593 ± 3.6 kg/m3. The “vapor or sublimation pressure” value in series [2] (417.15 K) is given as 95.23 ± 5 kPa.
As for `Cc1ccc(O)cc1` [4-methylphenol], the refractive index in series [1] (298.15 K) is reported as 1.5391 ± 0.005. For the same compound, in series [2] (472.85 K), the “vapor or sublimation pressure” value is recorded as 95.23 ± 5 kPa.
`Cc1cccc(C)c1` [1,3-dimethylbenzene]: in series [1] (293.15 K), the refractive index was 1.4972 ± 0.005. Also, in series [2] (293.15 K), the mass density is listed as 864.4 ± 1.7 kg/m3. Further, in series [2] (410.15 K), the “vapor or sublimation pressure” value is recorded as 95.23 ± 5 kPa.
As for `Cc1ccc(C)cc1` [1,4-dimethylbenzene], in series [1] (293.15 K), the refractive index turned out to be 1.4858 ± 0.005. For the same compound, the mass density in series [2] (293.15 K) is on record as 861 ± 1.7 kg/m3. In series [2] (409.15 K), the “vapor or sublimation pressure” value is 95.23 ± 5 kPa.
